Test results: patent publication US7871644B2, “Pharmaceutical composition for oral use with improved absorption” (Astellas Pharma Inc., priority 2000, dated 2011)

Columns and labels:
[1] = Int. J. Pharm., 1993; cited from earlier work
[2] = J. Pharm. Sci, 86, 1997; cited from earlier work
[3] = Number of insoluble particulate matter after adding calcium chloride to bisphosphonate solution; conditions: calcium chloride solution added, 0-60 minutes
Experimental: Another 2 ml distilled water were added to this liquid.
Then 2 ml of an aqueous 10 mg/ml calcium chloride.2H2O solution were added to this liquid.

[4] = Number of insoluble particulate matter after adding magnesium chloride to compound B solution; conditions: compound B solution with sodium bicarbonate, magnesium chloride solution added, 0-60 minutes, FIG. 7
Experimental: Another 2 ml distilled water were added to this solution and the number of insoluble particulate matter (2 μm or larger) was determined 0, 15, 30, and 60 minutes after addition using an insoluble particulate matter gauge (HIAC/ROYCO®, Pacific Scientific).
Two milliliters aqueous 10 mg/ml magnesium chloride.6H2O solution were added to this prepared liquid, and the number of insoluble particulate matter (2 μm or larger) was determined 0, 15, 30 and 60 minutes after addition by the same method as in Experiment 11.
Two milliliters aqueous 10 mg/ml magnesium chloride.6H2O were added to this prepared liquid, and the number of insoluble particulate matter (2 μm or larger) was determined 0, 15, 30 and 60 minutes after addition by the same method as in Experiment 11.

[5] = Oral administration of compound B tablets to beagles 30 minutes after feed; type: in vivo; conditions: fed beagles

C[C@]12CC[C@H]3[C@@H](CCC4=CC(=O)CC[C@@]43C)[C@@H]1CC[C@@H]2O [testosterone]
share of the barrier to absorption accounted for by the mucous layer [1]: 78%
reduction of the diffusion coefficient by the mucous layer [2]: 50%

CC(O)(P(=O)(O)O)P(=O)(O)O [compound D, (1-hydroxyethylidene)-1,1-bisphosphonate]
number of insoluble particulate matter (2 μm or larger) ([3]; compound D solution with sodium bicarbonate, FIG. 5): increase in the number of insoluble particulate matter

O=P(O)(O)C(O)(Cc1cnc2ccccn12)P(=O)(O)O [compound B]
number of insoluble particulate matter (2 μm or larger) [4]: increase in the number of insoluble particulate matter
number of insoluble particulate matter (10 μm or larger) ([3]; compound B solution, FIG. 2): increase in the number of insoluble particulate matter
Cmax and AUC when taken with food [5]: low Cmax and AUC

O=P(O)(O)C(NC1CCCCCC1)P(=O)(O)O [compound C, [(cycloheptylamino)-methylene]bis-phosphonate]
number of insoluble particulate matter (10 μm or larger) ([3]; compound C solution with sodium bicarbonate, FIG. 4): increase in the number of insoluble particulate matter
